In US5693609A, “Acylated insulin analogs” (Eli Lilly and Company, priority 1994, dated 1997):

Legend:
male rats = details: 25 U/mL, cited from earlier work; for hypoglycemic effect, administered intramuscularly: intramuscularly (FIG. 6 of Hashimoto et al.); for hypoglycemic effect, administered intravenously: intravenously (FIG. 5 of Hashimoto et al.)
conscious dog model = experiment: Plasma glucose after subcutaneous injection in conscious dog model; assay type: in vivo, beagles; details: for Plasma glucose concentration: n = 1
Protocol: Experiments were conducted in overnight-fasted, conscious, adult (1-2 years of age) male and female beagles weighing 8-15 kg. At least ten days prior to the study, animals were anesthetized with isoflurane, and a cut-down was made in the left or right inguinal region. Silastic catheters were inserted into the femoral artery and into the proximal caudal femoral vein and secured with 4-0 silk suture. The free ends of the catheters were passed subcutaneously to the back using a trocar needle. The catheters were then filled with a glycerol/heparin solution (3:1, v/v; final heparin concentration of 250 KIU/ml), and the free ends were knotted and placed in a subcutaneous pocket to allow complete closure of the skin. Keflex was administered both pre-operatively (20 mg/kg, IV and 20 mg/kg, I.M.) and post-operatively (250 mg, p.o. once daily for seven days) to prevent infections. Torbugesic (1.5 mg/kg, I.M.) was administered post-operatively to control pain. Blood was drawn just prior to the study day to determine the health of the animal. Only animals with hematocrits above 38% and leukocyte counts below 16,000/mm^3 were used. The afternoon before the experiment, the free ends of the catheters were exteriorized from the subcutaneous pocket through a small incision made under local anesthesia (2% lidocaine), and the dog was fitted with a tether system jacket and collar assembly. The morning of the experiment, the contents of the arterial catheter were aspirated (only the arterial line was used in these studies), the catheter was flushed with saline, and an extension line (protected by a stainless steel tether) was attached to the catheter. The dog was placed in a metabolic cage, and the catheter extension line and tether was attached to a swivel system to allow the dog to move freely about the cage. After a 15 minute rest period (45 minutes, controls), blood (2-3.5 ml) was drawn for determination of the plasma glucose concentration. A second baseline sample was drawn 15 minutes later (0 time). Test substance (phosphate buffered saline or […] of B28-N^ε -Palmitoyl Lys^B28 Pro^B29 -human insulin; this does is the molar equivalent of 1.75 U/kg of human insulin) was administered subcutaneously in the dorsal of the neck.
Arterial blood samples (2-3.5 ml) were then taken at least every 30 minutes for the next two (controls) to six (B28-N^ε -palmitoyl Lys^B28 Pro^B29 -human insulin) hours. Samples were collected in vacuum blood collection tubes containing disodium EDTA and immediately placed on ice. The samples were centrifuged, and the resulting plasma was transferred to polypropylene test tubes and stored on ice or refrigerated for the duration of the study.
At the conclusion of the experiment, the animal was anesthetized (isoflurane); the catheter was flushed with fresh saline and filled with the glycerol/heparin mixture; the free end of the catheter was knotted and placed subcutaneously as described earlier; and antibiotic was administered (300 mg Keflex, I.M.). Plasma glucose concentrations were determined the day of the study using a glucose oxidase method in a Beckman glucose analyzer. Values are listed as the mean ± the standard error of the mean (SEM).

Substance | hypoglycemic effect, administered intramuscularly (male rats) | hypoglycemic effect, administered intravenously (male rats) | Plasma glucose concentration (conscious dog model; 30 minutes after 10.5 subcutaneously) | Plasma glucose concentration (conscious dog model; 60 minutes after 10.5 subcutaneously) | Plasma glucose concentration (conscious dog model; 90 minutes after 10.5 subcutaneously) | Plasma glucose concentration (conscious dog model; 120 minutes after 10.5 subcutaneously) | Plasma glucose concentration (conscious dog model; 150 minutes after 10.5 subcutaneously) | Plasma glucose concentration (conscious dog model; 180 minutes after 10.5 subcutaneously) | Plasma glucose concentration (conscious dog model; 210 minutes after 10.5 subcutaneously) | Plasma glucose concentration (conscious dog model; 240 minutes after 10.5 subcutaneously) | Plasma glucose concentration (conscious dog model; 270 minutes after 10.5 subcutaneously) | Plasma glucose concentration (conscious dog model; 300 minutes after 10.5 subcutaneously) | Plasma glucose concentration (conscious dog model; 330 minutes after 10.5 subcutaneously) | Plasma glucose concentration (conscious dog model; 360 minutes after 10.5 subcutaneously) | decrease in the plasma glucose concentration (conscious dog model; six hours post-injection, vs baseline) | activity in conscious dog model (in words) (conscious dog model; subcutaneous, 10.5) | Plasma glucose concentration (conscious dog model; time 0 minutes (baseline), overnight-fasted dog) | Plasma glucose concentration (conscious dog model; time -15 minutes (baseline, before injection), overnight-fasted dog)
B1,B29-N^α N^ε -dipalmitoyl insulin [B1,B29-Nα, N^ε -dipalmitoyl insulin] | negligible effect | very low activity |  |  |  |  |  |  |  |  |  |  |  |  |  |  |  | 
B1-N^α -palmitoyl insulin | only a short hypoglycemic effect | very low activity |  |  |  |  |  |  |  |  |  |  |  |  |  |  |  | 
B28-N^ε -Palmitoyl Lys^B28 Pro^B29 -human insulin |  |  | 114 mg/dL | 107 mg/dL | 102 mg/dL | 99 mg/dL | 101 mg/dL | 100 mg/dL | 100 mg/dL | 98 mg/dL | 87 mg/dL | 82 mg/dL | 79 mg/dL | 75 mg/dL | 35% | insulin-like activity | 116 mg/dL | 116 mg/dL
